Patent publication US20160016986A1, “STABILIZED NUCLEOTIDES FOR MEDICAL TREATMENT” (priority 2014, published 2016)
Read-outs that look alike come from different tables or passages of the source.

How the values were obtained:
[1] = test system: HCV genotype 1; conditions: cited from earlier work
[2] = patients receiving high dosages of VX-135; cited from earlier work
[3] = human, in vivo; cited from earlier work
[4] = test system: HCV replicon replication; assay: Inhibition of HCV replication (HCV replicon in Huh-luc/neo cells; extrapolated to primary human hepatocytes); format: cell-based
[5] = Half-life of the active triphosphate in human hepatocytes; format: in vitro ADME; conditions: plated in 12-well format
Procedure: Human hepatocyte cells used for half-life determinations were human liver hepatocyte 12-well format cells and were seeded at 0.67 million cells per well. Canine hepatocyte cells used for half-life determinations were beagle dog liver hepatocyte 12-well format cells and were seeded at 0.67 million cells per well. Monkey hepatocyte cells used for half-life determinations were Cynomolgus monkey liver hepatocyte 12-well format cells, and were seeded at 0.9 million cells per well. Rat hepatocyte cells for half-life determinations were Sprague-Dawley (SD) rat liver hepatocyte 12-well format cells, and were seeded at 0.67 million cells per well. All cells were obtained from Life Technologies.

[6] = test system: human hepatocytes; assay: Determination of nucleoside concentrations (dephosphorylated 5′-OH nucleoside) in human hepatocyte media and cell extract; format: in vitro ADME; conditions: 20 μM Formula VII vs Formula II, 24 hours
Procedure: At 24 hours, media was removed and frozen. Cells were washed twice with cold PBS.
Supernatants were removed and analyzed by LC-MS/MS. […] Samples were centrifuged at 3000 rpm for 15 minutes. Supernatants were removed and analyzed by LC-MS/MS.
Hepatocyte media incubates were removed from the freezer, defrosted and vortexed. […] Supernatants were removed and analyzed by LC-MS/MS. […] Supernatants were removed and analyzed by LC-MS/MS.

[7] = test system: human liver hepatocytes; assay: Triphosphate levels in human hepatocytes after incubation with prodrug; conditions: incubation with 5 μM prodrug over 48 hours
Procedure: Fresh liver hepatocytes were received plated in a 12-well or 6-well format (Life Technologies, Catalogue #HMFN12 and #HMNF06). Upon receipt, shipping media was removed immediately and replaced with 1 mL or 2 mL pre-warmed culture medium (Supplemented modified Chee's Media; Xenotech LLC, Catalogue# K2300) for 12- and 6-well formats, respectively. Cells were acclimated overnight at 37° C. with 5% CO2 atmosphere. […] Stability of the compounds in the absence of cells was also assayed. […] Cells were washed twice with cold PBS. 70% cold Methanol (0.75 mL or 1.5 mL, for 12- and 6-well formats, respectively) containing Formula X as an internal standard was added to each well and cells were gently removed from the plate by scraping. The recovered cells suspended in the methanol solution were aspirated into a vial and frozen at −80° C.
Cell solutions were extracted overnight at −80° C. in 70% methanol, removed from the freezer, defrosted and vortexed. Tubes were centrifuged at 3000 rpm for 15 minutes at 4° C. Supernatants were removed and analyzed by LC-MS/MS. […] Supernatants were removed and analyzed by LC-MS/MS. […] The analytes were quantified using linear regression of calibration standard values with instrument response. […]
The general methods of Example 33 were used to determine compound concentrations. […] The results were plotted and the linear regression was calculated using Microsoft Excel.

[8] = test system: HCV genotype 1, 2 or 3; conditions: once-daily 300 mg for seven days; cited from earlier work
[9] = test system: HCV; conditions: several large clinical trials; cited from earlier work
[10] = beagle (dog), Sprague-Dawley (rat), cynomolgus monkey, range over human, dog, monkey and rat hepatocytes, read-out: half-life of active triphosphate in hepatocytes
[11] = 6 well plate (2 ml), 1.7 million cells per well
[12] = 12 well plate (1 ml), 0.67 million cells per well

For `CC(C)OC(=O)[C@H](C)NP(=S)(OC[C@H]1O[C@@H](n2ccc(=O)[nH]c2=O)[C@](C)(O)[C@@H]1O)Oc1ccccc1` (single isomer, unassigned) [VX-135], the “completion of treatment rate (SVR12)” value ([1]; 200 mg VX-135 in combination with daclatasvir, 12 weeks of treatment) is given as 91%, the “sustained viral response rate four weeks after completion of treatment (SVR4)” value ([1]; 200 mg VX-135 in combination with daclatasvir, treatment-naïve genotype 1, intent-to-treat) is given as 83% and the adverse event ([1]; VX-135 in combination with daclatasvir, one patient) is given as “serious adverse event of vomiting/nausea”. The clinical toxicity finding [2] was “liver toxicity”.
In the case of `COc1nc(N)nc2c1ncn2[C@@H]1O[C@H](COP(=O)(N[C@@H](C)C(=O)OCC(C)(C)C)Oc2cccc3ccccc23)[C@@H](O)[C@@]1(C)O` (some centres unmarked) [BMS-986094], the clinical safety outcome [3] is given as “death of a patient due to heart failure”.
For `[2H]c1cn([C@@H]2O[C@H](C([2H])([2H])O[P@@](=O)(N[C@@H](C)C(=O)OC(C)C)Oc3ccccc3)[C@@H](O)[C@@]2(C)O)c(=O)[nH]c1=O` [Formula II, (S)-isopropyl 2-(((S)-(((2R,3R,4R,5R)-5-(5-deutero-2,4-dioxo-3,4-dihydropyrimidin-1(2H)-yl)-3,4-dihydroxy-4-methyltetrahydrofuran-2-yl)dideuteromethoxy)(phenoxy)phosphoryl)amino)propanoate], the EC50 ([4]; Hepatitis C virus, Hepatocyte, read-out: predicted EC50 in primary human hepatocytes) was 6.25 to 10 nM.
For `[2H]c1cn(C2OC(C([2H])([2H])OP(=O)(O)OP(=O)(O)OP(=O)(O)O)[C@@H](O)[C@@]2(C)O)c(=O)[nH]c1=O` (some centres unmarked) [Formula IV], the half-life [5, 10] was 10 to 30 h and the half-life ([5]; human, human hepatocytes, read-out: half-life of triphosphate) was > 24 h.
In the case of `C[C@@]1(O)[C@H](O)[C@@H](CO)O[C@H]1n1ccc(=O)[nH]c1=O` [Formula IX, 2′-C-methyluridine], the “higher concentration of undeuterated dephosphorylated 2′-methyl uridine compared to 5′-deuterated form (Formula VI), cell extract (intracellular)” value [6, 11] is reported as 2.8 fold, the “higher concentration of undeuterated dephosphorylated 2′-methyl uridine compared to 5′-deuterated form (Formula VI), first value, printed as cell extract” value [6, 11] is reported as 1.5 fold and the “higher concentration of undeuterated dephosphorylated 2′-methyl uridine (Formula IX) compared to 5′-deuterated form (Formula VI), cell extract (intracellular)” value [6, 12] is reported as 2.9 fold. The “higher concentration of undeuterated dephosphorylated 2′-methyl uridine (Formula IX) compared to 5′-deuterated form (Formula VI), media (extracellular)” value [6, 12] was 1.9 fold.
In the case of `[2H]c1cn(C2OC(C([2H])([2H])O)[C@@H](O)[C@@]2(C)O)c(=O)[nH]c1=O` (some centres unmarked) [Formula VI, 5′-deuterated 2′-C-methyluridine], the “activity against hepatitis C viral replication” value ([4]; statement in description, poor substrate for nucleoside monophosphate kinase) is reported as “little activity”.
For `C[C@@]1(F)[C@H](O)[C@@H](COP(=O)(O)OP(=O)(O)OP(=O)(O)O)O[C@H]1n1ccc(=O)[nH]c1=O` [GS-7977-TP], the half-life [5, 10] was 8 to 23 h and the “time of peak triphosphate levels in human hepatocytes” value [7] was 24 h.
For `CC(C)OC(=O)[C@@H](C)N[P@@](=O)(OC[C@H]1O[C@@H](n2ccc(=O)[nH]c2=O)[C@](C)(Cl)[C@@H]1O)Oc1ccccc1` [IDX21437], the “mean maximum reduction in viral load” value [8] is listed as 4.2-4.3 log 10 IU/mL.
In the case of `CC(C)OC(=O)[C@H](C)N[P@](=O)(OC[C@H]1O[C@@H](n2ccc(=O)[nH]c2=O)C(C)(F)C1O)Oc1ccccc1` (some centres unmarked) [Sofosbuvir], the “sustained viral response (SVR) of twelve weeks, share of trial participants” value [9] is given as 50-90%.
